# Results: ChEMBL document CHEMBL4138079, “New cycloartane type-triterpenoids from the areal parts of Caragana sukiensis and their biological activities” (Eur J Med Chem, 2017)
# The source made the active and inactive calls. The rule behind the calls is not given here.
# Columns and labels:
# [1] = test system: A549; assay: Cell cycle arrest in human A549 cells assessed as G0/G1 phase accumulation at 2 uM after 48 hrs by propidium iodide staining based FACS analysis (reference value: 77.91%); format: functional
# [2] = test system: HEK293; assay: Cytotoxicity against human HEK293 cells assessed as reduction in cell viability after 48 hrs by MTT assay; format: cell-based; details: HEK293, 48 h
# [3] = test system: A549; assay: Induction of apoptosis in human A549 cells assessed as early apoptotic cells at 1 uM after 48 hrs by Annexin V-FITC/propidium iodide staining based flow cytometry (reference value: 3.24%); format: functional
# [4] = test system: A549; assay: Induction of apoptosis in human A549 cells assessed as cell population with mitochondrial membrane potential loss at 2 uM measured after 48 hrs by JC-1 staining based flow cytometry (reference value: 27.4%); format: functional
# [5] = test system: A549; assay: Induction of apoptosis in human A549 cells assessed as early apoptotic cells at 2 uM after 48 hrs by Annexin V-FITC/propidium iodide staining based flow cytometry (reference value: 3.24%); format: functional
# [6] = test system: A549; assay: Cell cycle arrest in human A549 cells assessed as sub G1 phase accumulation at 1 uM after 48 hrs by propidium iodide staining based FACS analysis (reference value: 0.96%); format: functional
# [7] = test system: A549; assay: Cytotoxicity against human A549 cells assessed as reduction in cell viability after 48 hrs by MTT assay; format: functional, cell-based; details: A549, 48 h
# [8] = test system: A549; assay: Induction of apoptosis in human A549 cells assessed as late apoptotic cells at 2 uM after 48 hrs by Annexin V-FITC/propidium iodide staining based flow cytometry (reference value: 5.19%); format: functional
# [9] = test system: Spodoptera litura; assay: Antifeedant activity in Spodoptera litura third-instar larvae assessed as increase in feeding deterrence after 24 hrs by leaf disk method; format: functional
# [10] = test system: A549; assay: Induction of apoptosis in human A549 cells assessed as necrotic cells at 1 uM after 48 hrs by Annexin V-FITC/propidium iodide staining based flow cytometry (reference value: 0.35%); format: functional
# [11] = test system: Spodoptera litura; assay: Antifeedant activity in Spodoptera litura third-instar larvae assessed as larval duration time after 24 hrs by leaf disk method (reference value: 10.1 +/- 0.1 day); format: functional
# [12] = test system: A549; assay: Cell cycle arrest in human A549 cells assessed as S phase accumulation at 1 uM after 48 hrs by propidium iodide staining based FACS analysis (reference value: 2.45%); format: functional
# [13] = test system: A549; assay: Induction of apoptosis in human A549 cells after 48 hrs by Annexin V-FITC/propidium iodide staining based flow cytometry; format: functional, cell-based
# [14] = test system: MCF7; assay: Cytotoxicity against human MCF7 cells assessed as reduction in cell viability after 48 hrs by MTT assay; format: functional, cell-based; details: MCF7, 48 h
# [15] = test system: A549; assay: Induction of apoptosis in human A549 cells assessed as live cells at 2 uM after 48 hrs by Annexin V-FITC/propidium iodide staining based flow cytometry (reference value: 91.22%); format: functional
# [16] = test system: A549; assay: Cell cycle arrest in human A549 cells assessed as sub G1 phase accumulation at 2 uM after 48 hrs by propidium iodide staining based FACS analysis (reference value: 0.96%); format: functional
# [17] = test system: A549; assay: Induction of apoptosis in human A549 cells assessed as cell population with intact mitochondrial membrane potential at 2 uM measured after 48 hrs by JC-1 staining based flow cytometry (reference value: 37.5%); format: functional
# [18] = test system: A549; assay: Induction of apoptosis in human A549 cells assessed as cell population with intact mitochondrial membrane potential at 1 uM measured after 48 hrs by JC-1 staining based flow cytometry (reference value: 37.5%); format: functional
# [19] = test system: DU-145; assay: Cytotoxicity against human DU145 cells assessed as reduction in cell viability after 48 hrs by MTT assay; format: functional, cell-based; details: DU-145, 48 h
# [20] = test system: A549; assay: Cell cycle arrest in human A549 cells assessed as G2/M phase accumulation at 1 uM after 48 hrs by propidium iodide staining based FACS analysis (reference value: 16.81%); format: functional
# [21] = test system: A549; assay: Cell cycle arrest in human A549 cells assessed as S phase accumulation at 2 uM after 48 hrs by propidium iodide staining based FACS analysis (reference value: 2.45%); format: functional
# [22] = test system: A549; assay: Cell cycle arrest in human A549 cells assessed as G0/G1 phase accumulation at 1 uM after 48 hrs by propidium iodide staining based FACS analysis (reference value: 77.91%); format: functional
# [23] = test system: A549; assay: Cell cycle arrest in human A549 cells assessed as G0/G1 phase accumulation after 48 hrs by propidium iodide staining based FACS analysis; format: functional
# [24] = test system: A549; assay: Induction of apoptosis in human A549 cells assessed as live cells at 1 uM after 48 hrs by Annexin V-FITC/propidium iodide staining based flow cytometry (reference value: 91.22%); format: functional
# [25] = test system: A549; assay: Induction of apoptosis in human A549 cells assessed as cell population with mitochondrial membrane potential loss at 1 uM measured after 48 hrs by JC-1 staining based flow cytometry (reference value: 27.4%); format: functional
# [26] = test system: A549; assay: Induction of apoptosis in human A549 cells assessed as late apoptotic cells at 1 uM after 48 hrs by Annexin V-FITC/propidium iodide staining based flow cytometry (reference value: 5.19%); format: functional
# [27] = test system: Spodoptera litura; assay: Antifeedant activity in Spodoptera litura assessed as pupal mortality after 24 hrs by leaf disk method (reference value: 0%); format: functional
# [28] = test system: A549; assay: Cell cycle arrest in human A549 cells assessed as G2/M phase accumulation at 2 uM after 48 hrs by propidium iodide staining based FACS analysis (reference value: 16.81%); format: functional
# [29] = test system: Spodoptera litura; assay: Antifeedant activity in Spodoptera litura third-instar larvae assessed as increase in feeding deterrence by measuring antifeedant index at 5 ug/cm2 after 24 hrs by leaf disk method; format: functional
# [30] = test system: HeLa; assay: Cytotoxicity against human HeLa cells assessed as reduction in cell viability after 48 hrs by MTT assay; format: functional, cell-based
# [31] = test system: A549; assay: Induction of apoptosis in human A549 cells assessed as morphological change at 1 uM after 48 hrs by Hoechst 33258 staining based fluorescence microscopic analysis; format: functional, cell-based
# [32] = test system: Spodoptera litura; assay: Antifeedant activity in Spodoptera litura assessed as pupal weight after 24 hrs by leaf disk method (reference value: 0.245 +/- 0.02 g); format: functional
# [33] = test system: Spodoptera litura; assay: Insecticidal activity in Spodoptera litura third-instar larvae assessed as larval mortality at 5 ug/cm2 after 24 hrs by leaf disk method relative to control; format: functional; details: foliar
# [34] = test system: A549; assay: Induction of apoptosis in human A549 cells assessed as necrotic cells at 2 uM after 48 hrs by Annexin V-FITC/propidium iodide staining based flow cytometry (reference value: 0.35%); format: functional
smiles,measurement,setting,value
CC(C)(O)[C@@H]1CC[C@](C)([C@H]2[C@@H](O)C[C@@]3(C)[C@@H]4C[C@H](O)[C@H]5C(C)(C)[C@@H](O)CC[C@@]56C[C@@]46CC[C@]23C)O1,Activity,[1],90.47%
same,IC50,[2],128000 nM
same,Activity,[3],4.17%
same,Activity,[4],31.1%
same,Activity,[5],3.94%
same,Activity,[6],0.4%
same,IC50,[7],1540 nM
same,Activity,[8],23.83%
same,ED50,[9],11.96 microg/cm2
same,Activity,[10],0.96%
same,Time,[11],14.2 days
same,Activity,[12],2.41%
same,Activity,[13],Dose-dependent effect
same,IC50,[14],1780 nM
same,Activity,[15],71.07%
same,Activity,[16],0.84%
same,Activity,[17],38.6%
same,Activity,[18],39.6%
same,IC50,[19],7260 nM
same,Activity,[20],14.45%
same,Activity,[21],0.87%
same,Activity,[22],82.05%
same,Activity,[23],Dose-dependent effect
same,Activity,[24],83.55%
same,Activity,[25],29%
same,Activity,[26],11.31%
same,mortality,[27],89.6%
same,Activity,[28],7.29%
same,Activity_index,[29],59.9
same,IC50,[30],2200 nM
same,Activity,[31],Active
same,Activity,[32],0.199 g
same,mortality at 5 µg/cm2,[33],11.8%
same,Activity,[34],1.16%
